The values below come from patent publication US20240016785A1 (Delta 4 GmbH, priority 2020, published 2024).

Some results are limits rather than exact numbers.

Assay [1] relates to podocytes of animals with adriamycin induced nephropathy. The following applies: animals treated with clopidogrel as in Example 2, vs untreated adriamycin nephropathy animals.
Assay [2] deals with adriamycin induced nephropathy in BALB/c mice. The method, then:
Control mice were injected with 0.9% saline. At least 6 mice were analyzed per group. Mice were monitored daily for signs of pain, altered movement, or reduced food uptake and sacrificed by cervical dislocation. Tested drugs were administered per oral administration via pre-mixed chow at drug doses based on literature research.
Urinary albumin levels were assessed by ELISA, urinary total protein and urinary creatinine levels were measured on the Roche Cobas system, using routine laboratory kits. Urinary protein/creatinine (UPCR) ratio and urinary albumin/creatinine ratio (UACR) were assessed at different time points. Weight and physical fitness scores were monitored on a daily basis. At the end of the experiment, tissue sections, plasma and urine samples were collected and stored until further analysis.
Repeated measures ANOVA across timepoints was calculated using the R statistical software framework.

Assay [3] relates to Adriamycin nephropathy in Balb/c mice. The protocol:
Adriamycin (Doxorubicin; Sigma, D1515-10 mg) was diluted in ddH2O. To induce FSGS, a dose of 10.5 mg/kg mouse was injected i.v. into the tail vein using 27G needles, i. e. a total volume of 200 μl volume per 25 g mouse.
For tail vein injection, mice were anaesthetized using Ketanest (Pfizer, 25 mg/ml vials) and Rompun (Bayer, 20 mg/ml injection solution). A final mix of 12.5 mg/ml Ketanest and 0.25% Rompun in 0.9% NaCl solution was prepared and 200 μl/25 g mouse were injected.
Female Balb/c mice were obtained from the animal breeding facility of the Medical University (Abteilung kir Labortierkunde, Himberg, Austria). 12-16 weeks old animals with a weight >20 g were used for the experiments and adjusted for weight and age. Animals were allowed acclimatization of at least 7 days. Animals were marked by ear or toe clip codes to allow identification. Adriamycin nephropathy in Balb/c mice is the most commonly used animal model for preclinical FSGS studies and shares the central features with human FSGS.
Standard commercial chow from ssniff (ssniff Spezialdiaten GmbH, Soest, Germany) contained crude protein (19%), crude fat (3.3%), crude fiber (4.9%), crude ash (6.4%), starch (36.5%), sugar (4.7%). […] All animals were allowed to eat ad libitum assuming a daily average uptake of ˜4 grams/mouse (according to animal care guideline of the Johns Hopkins University,
Spot urine was collected every week and Creatinine and protein levels were measured.
Urinary albumin was measured by ELISA. 96-well plates were coated over night at 4° C. with 100 μl antibody solution Anti Mouse Serum Albumin antibody (Abcam ab34807, Lot GR3242102-4; diluted 1:2,000) in coating buffer (3.7 g NaHCO3; 0,64 g Na2CO3; 1L distilled water). The remaining procedure was performed at room temperature. Wells were washed 3× with HBSS (Sigma H8264-500 ML) +0,05% Tween-20 (Bio-Rad, #1706531) and blocked in ELISA/ELISPOT Diluent (eBioscience, 00-4202-56) and washed again for 3×. Samples and standard curve were both diluted in ELISA/ELISPOT diluent were incubated for 2 h, followed by 3 wash steps with HBSS+0,05% Tween-20, incubated with HRP antibody Anti Mouse Serum Albumin antibody (Abcam ab19195, Lot GR3242102-4; diluted 1:100,000) for 1 h, followed by 5 wash steps. Reaction was developed with TMB One Solution (Promega, G7431) and stopped with 2N H2SO4. Standard curves were generated with Mouse Albumin (Merck/Sigma, 126674-25MG). 450 nm absorbance was measured on an Epoch Microplate reader (BioTek) using GenS 1.10 software.
At the end of the experiment kidneys were removed, embedded in paraffin and PAS (Periodic acid-Schiff) staining was performed. Histology was thoroughly evaluated and the amount of sclerotic glomeruli and protein casts was quantified.
R version 4.0.2 was used for statistical analysis. Student's t-test was used for comparing UPCR and UACR values between samples from treated and control mice for each individual time point and to assess differences in histological parameters. Repeated measures ANOVA was performed to analyse the drug's impact on UPCR and UACR over time using the respective functions in the rstatix package (V0.6.0). ggplot2 (V3.3.2) and ggpubr (V0.4.0) packages were used for generating the graphical visualizations.
In two independent experiments (Experiment 1 and 2), 34 female Balb/c mice were injected with 10.5 mg/kg adriamycin into the tail vein (see table 2). […] Spot urine was collected weekly, kidneys were harvested at sacrifice. 10.5 mg/kg Adriamycin were injected into the tail vein. […] Urine was collected and weight was measured weekly. The experiments lasted about 5 weeks.

In the case of `COC(=O)[C@H](c1ccccc1Cl)N1CCc2sccc2C1` [Clopidogrel, (S)-Methyl-(2-chlorphenyl)-2-(6,7-dihydro-4H-thieno[3,2-c]pyridin-5-yl)acetate], the “podocyte injury (podocytopathy) by electron microscopy” value in assay [1] is recorded as “significantly reduced podocyte injury”. In assay [2] (FIG. 1, mice could recover from Adriamycin induced FSGS in this experiment), the “UPCR at 37 days after start, compared with Ctrl mice” value is reported as “reduced to similar levels”. Moreover, the “effect of drug administration on UPCR, repeated measures ANOVA across timepoints” value in assay [2] (adriamycin approx. 9 mg/kg, drug via pre-mixed chow, p=0.009 (drug)) is recorded as “significant”. Moreover, the “glomerular sclerosis index (sclerotic glomeruli of all glomeruli), highest reached in any sample” value in assay [3] (PAS staining, untreated control group went up to 35%) is at most 4%. For the same compound, the “reduction of UPCR (urinary protein to creatinine ratio)” value in assay [3] (both experiments together, average across all time points, chow + 200 mg/kg Clopidogrel (~25-30 mg/kg mouse/day) from 48 h after adriamycin 10.5 mg/kg i.v., vs control mice) is 49%. Moreover, the “reduction of UACR (urinary albumin to creatinine ratio)” value in assay [3] (both experiments together, average across all time points, chow + 200 mg/kg Clopidogrel, vs control mice) came out at 61%. For the same compound, the “average histopathological damage score” value in assay [3] (clopidogrel-treated group, control average 2.67, p=0.038) turned out to be 0.86. Besides, the “severe disease (glomerular sclerosis)” value in assay [3] (histopathology, FIG. 8A, B) is “completely prevented severe disease”. Moreover, in assay [3] (overall, both experiments, weight measured weekly, vs control mice), the “reduction of ADR-associated weight loss” value turned out to be 48%. Further, in assay [3] (vs control group, FIG. 8C), the “tubular ectasia, determined by protein cylinders in PAS staining” value is on record as “strongly ameliorated”. In addition, the “weight loss compared to control mice” value in assay [3] (weekly over the course of the experiments) is on record as “less weight loss”.
